# Assay results: PubChem BioAssay AID1963979 (Molecular Pharmacology Branch, DTP, NCI, 2024)
# Values joined by “and” are separate entries in the source; they are usually repeats but may differ in a detail not shown here. Equal values may be shown once.
# Tested on: 361931-004-R-J1-PDC multicell spheroid viability
# Experiment: Anticancer human tumor 361931-004-R-J1-PDC patient-derived colon adenocarcinoma cell line growth inhibition [PI3K]
# Settings: for viability, T/C: stronger effect = lower value
# Text: Combinatorial screen of targeted agents with the PI3K inhibitors inavolisib, alpelisib, duvelisib, and copanlisib in multi-cell type tumor spheroids
# A high-throughput screen of multi-cell type tumor spheroids was designed to identify active combinations of targeted small molecules and PI3K pathway inhibitors. Complex spheroids include a stromal component modeled by human endothelial cells (HUVEC) and fibroblasts modeled by human mesenchymal stem cells (MSCs). The concentration ranges selected for each drug and investigational agent were based upon clinically achievable concentrations if the clinical Cmax of the agent was known.
# Compounds. The drugs and investigational agents: inavolisib (NSC800729), alpelisib (NSC765974), duvelisib (NSC772469), copanlisib (NSC816437), ipatasertib (NSC767898), afuresertib (NSC778305), talazoparib (NSC767125), sapanisertib (NSC764658), selumetinib (NSC741078), tovorafenib (DAY101, NSC766906), vemurafenib (NSC761431), ravoxertinib (NSC781343), sotorasib (NSC818433), MRTX1133 (NSC 836407), abemaciclib (NSC 768073), palbociclib (NSC758247), venetoclax (NSC 766270), SY5609 (NSC837396), enzalutamide (NSC755605), and darolutamide (NSC825331), were obtained from the National Cancer Institute (NCI) Developmental Therapeutics Program Chemical Repository. The FDA-approved anticancer drug set is available from the NCI Developmental Therapeutics Program. […] The stock solutions were prepared in dimethyl sulfoxide (DMSO, Sigma-Aldrich, St. Louis, MO, cat. D2650) at 800-fold the tested concentration and stored at -70 degrees C prior to their use. All drugs and investigational agents were tested over a range starting from a high concentration at or near the clinical Cmax and decreasing in half-log increments. If the clinical Cmax for an agent had not been determined, the highest concentration tested was 10 microM.
# Cell Culture. All cells were maintained in an incubator at 37 degrees C and 5% CO2 with 95% humidity. The PDC lines were cultured according to standard operating procedures established by the NCI PDMR (https://pdmr.cancer.gov/sops/default.htm). All PDCs were thawed and cultured in Matrigel-coated flasks prepared with a working solution of 1X Ham's F-12 nutrient mix, without supplementation (Invitrogen, Waltham, MA, cat. 11765054), 100 U/mL penicillin-streptomycin (Invitrogen, cat. 15140122), and 2.5% Matrigel (Corning Inc., Corning, NY, cat. 354248) for the first three passages. The 354836-022-R-J1-PDC, 475296-252-R-J1-PDC, and 997726-040-R-J2-PDC lines were cultured in 6A media, which includes advanced DMEM/F-12 (Thermo Fisher Scientific, cat. 12634028), 10 mM HEPES (Thermo Fisher Scientific, cat. 15630080), 1X GlutaMAX supplement (Thermo Fisher Scientific, cat. 35050061), 0.1 mg/mL primocin (InvivoGen, San Diego, CA, cat. ant-pm-2), 10% defined fetal bovine serum, heat inactivated (HyClone Laboratories Inc., Logan, UT, cat. SH30070.03HI), 50% L-WRN conditioned media (ATCC, cat. CRL-3276), 1.25 mM N-Acetyl-L-cysteine (Sigma-Aldrich, cat. A9165), 10 mM nicotinamide (Sigma-Aldrich, cat. N0636), 1X B-27 supplement (Thermo Fisher Scientific, cat. 17504044), 1X N-2 supplement (Thermo Fisher Scientific, cat. 17502048), and 10 microM Y-27632 dihydrochloride (Tocris Bioscience, Bristol, United Kingdom, cat. 1254). The 624824-186-R-J2-PDC line was cultured in 6C/Colon 1B media, which includes all 6A media components plus 50 ng/mL human EGF recombinant protein (Thermo Fisher Scientific, cat. PHG0311). […]
# [1] = curve of first compound, second compound 0.0316 µM
# [2] = curve of first compound, second compound 0.1 µM
# [3] = curve of first compound, second compound 0.316 µM
# [4] = curve of first compound, second compound 1 µM
# [5] = second compound 0.0316 µM, first compound 0.0316 µM
# [6] = second compound 0.0316 µM, first compound 0.1 µM
# [7] = second compound 0.0316 µM, first compound 0.316 µM
# [8] = second compound 0.0316 µM, first compound 1 µM
# [9] = second compound 0.0316 µM, first compound 3.16 µM
# [10] = second compound 0.0316 µM, first compound 10 µM
# [11] = second compound 0.1 µM, first compound 0.0316 µM
# [12] = second compound 0.1 µM, first compound 0.1 µM
# [13] = second compound 0.1 µM, first compound 0.316 µM
# [14] = second compound 0.1 µM, first compound 1 µM
# [15] = second compound 0.1 µM, first compound 3.16 µM
# [16] = second compound 0.1 µM, first compound 10 µM
# [17] = second compound 0.316 µM, first compound 0.0316 µM
# [18] = second compound 0.316 µM, first compound 0.1 µM
# [19] = second compound 0.316 µM, first compound 0.316 µM
# [20] = second compound 0.316 µM, first compound 1 µM
# [21] = second compound 0.316 µM, first compound 3.16 µM
# [22] = second compound 0.316 µM, first compound 10 µM
# [23] = second compound 1 µM, first compound 0.0316 µM
# [24] = second compound 1 µM, first compound 0.1 µM
# [25] = second compound 1 µM, first compound 0.316 µM
# [26] = second compound 1 µM, first compound 1 µM
# [27] = second compound 1 µM, first compound 3.16 µM
# [28] = second compound 1 µM, first compound 10 µM
# 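Further: spheroids exposed to agents for seven days before readout.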
smiles,measurement,setting,value
CC1(C)CCC(CN2CCN(c3ccc(C(=O)NS(=O)(=O)c4ccc(NCC5CCOCC5)c([N+](=O)[O-])c4)c(Oc4cnc5[nH]ccc5c4)c3)CC2)=C(c2ccc(Cl)cc2)C1,"viability, T/C",compound 0.0316 µM,100% [middle of 4 runs]
same,"viability, T/C",compound 0.1 µM,101% [middle of 4 runs]
same,"viability, T/C",compound 0.316 µM,101% [middle of 4 runs]
same,"viability, T/C",compound 1 µM,102% [middle of 4 runs]
same,"viability, T/C",compound 10 µM,3.75% [middle of 4 runs]
same,IC50,curve of compound,4.94 µM and 4.18 µM and 5.61 µM
CNC(=O)c1ccc(N2C(=S)N(c3ccc(C#N)c(C(F)(F)F)c3)C(=O)C2(C)C)cc1F + CC(Nc1ncnc2nc[nH]c12)c1cc2cccc(Cl)c2c(=O)n1-c1ccccc1,IC50,[1],> 10 µM
same,IC50,[2],> 10 µM
same,IC50,[3],> 10 µM
same,IC50,[4],> 10 µM
same,IC50,"curve of first compound, second compound 3.16 µM",> 10 µM
same,IC50,"curve of first compound, second compound 10 µM",> 10 µM
same,"viability, T/C",[5],97.8%
same,"viability, T/C",[6],103%
same,"viability, T/C",[7],97.7%
same,"viability, T/C",[8],96.6%
same,"viability, T/C",[9],103%
same,"viability, T/C",[10],85.7%
same,"viability, T/C",[11],110%
same,"viability, T/C",[12],102%
same,"viability, T/C",[13],97.8%
same,"viability, T/C",[14],93.7%
same,"viability, T/C",[15],106%
same,"viability, T/C",[16],103%
same,"viability, T/C",[17],102%
same,"viability, T/C",[18],93%
same,"viability, T/C",[19],97.9%
same,"viability, T/C",[20],105%
same,"viability, T/C",[21],101%
same,"viability, T/C",[22],97.3%
same,"viability, T/C",[23],101%
same,"viability, T/C",[24],106%
same,"viability, T/C",[25],99.4%
same,"viability, T/C",[26],104%
same,"viability, T/C",[27],106%
same,"viability, T/C",[28],97.2%
same,"viability, T/C","second compound 3.16 µM, first compound 0.0316 µM",101%
same,"viability, T/C","second compound 3.16 µM, first compound 0.1 µM",109%
same,"viability, T/C","second compound 3.16 µM, first compound 0.316 µM",97.1%
same,"viability, T/C","second compound 3.16 µM, first compound 1 µM",101%
same,"viability, T/C","second compound 3.16 µM, first compound 3.16 µM",104%
same,"viability, T/C","second compound 3.16 µM, first compound 10 µM",93.4%
same,"viability, T/C","second compound 10 µM, first compound 0.0316 µM",107%
same,"viability, T/C","second compound 10 µM, first compound 0.1 µM",105%
same,"viability, T/C","second compound 10 µM, first compound 0.316 µM",104%
same,"viability, T/C","second compound 10 µM, first compound 1 µM",94.2%
same,"viability, T/C","second compound 10 µM, first compound 3.16 µM",112%
same,"viability, T/C","second compound 10 µM, first compound 10 µM",96.3%
CC(Cn1ccc(-c2ccc(C#N)c(Cl)c2)n1)NC(=O)c1cc(C(C)O)[nH]n1 (stereo not given) + CC(Nc1ccc2c(c1)OCCn1cc(N3C(=O)OCC3C(F)F)nc1-2)C(N)=O,IC50,"curve of first compound, second compound 0.00316 µM",> 10 µM
same,IC50,"curve of first compound, second compound 0.01 µM",> 10 µM
same,IC50,[1],> 10 µM
same,IC50,[2],> 10 µM
same,IC50,[3],> 10 µM
same,IC50,[4],> 10 µM
same,"viability, T/C","second compound 0.00316 µM, first compound 0.0316 µM",103%
same,"viability, T/C","second compound 0.00316 µM, first compound 0.1 µM",106%
same,"viability, T/C","second compound 0.00316 µM, first compound 0.316 µM",109%
same,"viability, T/C","second compound 0.00316 µM, first compound 1 µM",110%
same,"viability, T/C","second compound 0.00316 µM, first compound 3.16 µM",92.2%
same,"viability, T/C","second compound 0.00316 µM, first compound 10 µM",102%
same,"viability, T/C","second compound 0.01 µM, first compound 0.0316 µM",98.3%
same,"viability, T/C","second compound 0.01 µM, first compound 0.1 µM",113%
same,"viability, T/C","second compound 0.01 µM, first compound 0.316 µM",102%
same,"viability, T/C","second compound 0.01 µM, first compound 1 µM",93.7%
same,"viability, T/C","second compound 0.01 µM, first compound 3.16 µM",110%
same,"viability, T/C","second compound 0.01 µM, first compound 10 µM",98.6%
same,"viability, T/C",[5],102%
same,"viability, T/C",[6],103%
same,"viability, T/C",[7],105%
same,"viability, T/C",[8],111%
same,"viability, T/C",[9],104%
same,"viability, T/C",[10],90.3%
same,"viability, T/C",[11],96%
same,"viability, T/C",[12],99.2%
same,"viability, T/C",[13],93.5%
same,"viability, T/C",[14],97.5%
same,"viability, T/C",[15],79.3%
same,"viability, T/C",[16],72%
same,"viability, T/C",[17],97.8%
same,"viability, T/C",[18],92.1%
same,"viability, T/C",[19],98.8%
same,"viability, T/C",[20],93.9%
same,"viability, T/C",[21],86.1%
same,"viability, T/C",[22],86.8%
same,"viability, T/C",[23],82.2%
same,"viability, T/C",[24],75.9%
same,"viability, T/C",[25],80.2%
same,"viability, T/C",[26],85.8%
same,"viability, T/C",[27],70.6%
same,"viability, T/C",[28],57.5%
